In PMC9137581, “Identification of a Novel Class of Anti-Melanogenic Compounds, (Z)-5-(Substituted benzylidene)-3-phenyl-2-thioxothiazolidin-4-one Derivatives, and Their Reactive Oxygen Species Scavenging Activities” (Antioxidants, 2022):

Columns and labels:
[1] = molecular target: T1, mushroom tyrosinase (Agaricus bisporus, UniProt C7FF04); test: Mushroom tyrosinase inhibition assay (L-tyrosine substrate); format: biochemical; settings: for IC50: L-tyrosine substrate, means ± SEMs of triplicate determinations; for potency of mushroom tyrosinase inhibition relative to kojic acid: ratio of IC50 values versus kojic acid
T1 construct: purchased Sigma-Aldrich
Method: In order to examine the inhibitory effect of the (Z)-BPTT analogs on tyrosinase activity, commercially available mushroom tyrosinase (Sigma-Aldrich, St. Louis, MO, USA) was used. The mushroom tyrosinase-inhibitory activities of the analogs were determined as described previously with modification. Briefly, 20 µL (20 units) of an aqueous mushroom tyrosinase solution was added to each well of a 96-well microplate containing 170 µL of a substrate mixture consisting of 345 μM of L-tyrosine solution, 17.2 mM phosphate buffer (pH 6.5), and 10 µL of a (Z)-BPTT analog solution at different concentrations or 10 µL of a kojic acid solution (2, 10, or 50 μM). After incubating the assay mixtures for 30 min at 37 °C, the remaining tyrosinase activities were calculated from the amounts of dopachrome that were formed as determined by measuring their absorbance at 492 nm using a microplate reader (VersaMax™, Molecular Devices, Sunnyvale, CA, USA). The curves of the IC50 values that were derived from the X-axis of the inhibitor concentration versus the amount of product that was produced were determined by aligning the dose–response curve with the Y-axis. Inhibition experiments were performed in triplicate using three to six different concentrations of the (Z)-BPTT analogs or kojic acid. Log–linear curves and their equations were determined by using inhibition percentages at three to six analog concentrations. The individual IC50 values were determined by reading the concentrations on the Y-axis at 50% inhibition. The results are the means of three independent experiments.
The tyrosinase-inhibitory activities were screened against mushroom tyrosinase using L-tyrosine as a substrate, as previously described. Kojic acid, a representative tyrosinase inhibitor, was used as a positive control. […]. All 13 of the (Z)-BPTT analogs inhibited tyrosinase activity in a concentration-dependent manner. The IC50 values are shown in Table 2, along with the analog substitutions.

[2] = DPPH radical scavenging activity assay; settings: 1 mM, 30 min in the dark
Method: The effects of the (Z)-BPTT analogs 1–13 on DPPH radical scavenging activities were investigated as previously described with slight modification. Briefly, 180 μL of 0.2 mM DPPH in methanol was added to 96-well plates and then 20 μL of one of the (Z)-BPTT analogs 1–13 (10 mM in DMSO) or the positive control (10 mM L-ascorbic acid in distilled water) was added and mixed. The 96-well plates were incubated in the dark for 30 min and then the well optical densities were measured at 517 nm using a VersaMax™ microplate reader (Molecular Devices, Sunnyvale, CA, USA). All of these experiments were performed independently in triplicate. The DPPH radical scavenging activities of the analogs were calculated using the following formula:Scavenging activity (%) = (Ac − As) × 100/Ac where Ac is the optical density of the non-treated control and As is the optical density of the tested material.
The DPPH (2,2-diphenyl-1-picrylhydrazyl) radical scavenging abilities of the (Z)-BPTT analogs were investigated using L-ascorbic acid (vitamin C) as a positive control. The final concentrations of the analogs and of the positive control in the test samples and in the DPPH methanol solution were 1 and 0.18 mM, respectively. The scavenging activities of the analogs were assessed by measuring their optical densities at 517 nm after standing the samples in the dark for 30 min.

[3] = tested on: intracellular ROS in B16F10 cells; test: Intracellular ROS scavenging activity assay (DCFH-DA, SIN-1); format: cell-based, murine; settings: ≤ 20 µM, 10 µM SIN-1, B16F10 cells
Method: ROS scavenging activity was determined as has previously been described by Ali et al. and Lebel and Bondy. Briefly, DCFH-DA (2′,7′-dichlorodihydrofluorescein-diacetate) (2.5 mM; Molecular Probes, Eugene, OR, USA) mixed with esterase (1.5 units/mL) in a phosphate buffer (50 mM; pH 7.4) was incubated for 30 min at 37 °C and then placed on ice in the dark until it was required. In order to determine their intracellular ROS scavenging activities, B16F10 cells (1 × 10^4/well) were seeded in black 96-well plates and incubated for 24 h. The cells were then co-treated with the analogs and SIN-1 (3-morpholinosydnonimine) (10 µM), as previously described, for 2 h. DCFH-DA (20 µM) was added for 30 min in the dark and the fluorescence intensities of the oxidized DCFH were measured using a microplate reader (Tecan, Männedorf, Switzerland) at excitation and emission wavelengths of 485 and 530 nm, respectively. Trolox was used as the positive control.
We investigated the effects of the analogs on intracellular ROS (reactive oxygen species) because, reportedly, ROS might regulate melanogenesis in melanoma cells. The principle of the intracellular ROS assay that was used is that DCFH-DA (2′,7′-dichlorodihydrofluorescein diacetate) spreads across the cell membrane and is enzymatically hydrolyzed by esterases to DCFH (2′,7′-dichlorodihydrofluorescein), which reacts with ROS in order to generate DCF (2′,7′-dichlorofluorescein), which is fluorescent. Thus, the intracellular ROS scavenging activities of (Z)-BPTT analogs 1–3 and 6 were investigated in vitro using DCFH-DA. SIN-1 (3-morpholinosydnonimine) and trolox were used as a RNS/ROS generator [54] and a positive control, respectively.

T1 sequence (C7FF04 1-392 limits assumed): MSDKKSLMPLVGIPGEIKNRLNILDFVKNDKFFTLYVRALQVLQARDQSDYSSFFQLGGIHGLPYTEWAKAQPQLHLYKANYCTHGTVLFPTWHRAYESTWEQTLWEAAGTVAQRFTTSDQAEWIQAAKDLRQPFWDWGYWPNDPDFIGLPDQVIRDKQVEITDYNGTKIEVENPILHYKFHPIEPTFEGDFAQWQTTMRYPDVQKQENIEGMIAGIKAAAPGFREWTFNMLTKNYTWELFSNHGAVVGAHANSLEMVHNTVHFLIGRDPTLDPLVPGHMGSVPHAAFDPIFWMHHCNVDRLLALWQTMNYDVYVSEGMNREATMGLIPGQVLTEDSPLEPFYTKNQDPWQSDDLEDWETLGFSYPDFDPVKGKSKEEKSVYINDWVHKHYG

Question: For `O=C1/C(=C/c2ccc(O)cc2O)SC(=S)N1c1ccccc1` [Analog 3, (Z)-5-(2,4-Dihydroxybenzylidene)-3-phenyl-2-thioxothiazolidin-4-one], which IC50 [1] is on record?
Answer: 590 ± 30 nM

Question: What about the “potency of mushroom tyrosinase inhibition relative to kojic acid” value [1] of the same compound?
Answer: 29 fold

Question: What about the “DPPH radical scavenging activity” value [2] of the same compound?
Answer: 57.0%

Question: What does the source list for `O=C1/C(=C/c2ccc(O)c(O)c2)SC(=S)N1c1ccccc1` [Analog 2, (Z)-5-(3,4-Dihydroxybenzylidene)-3-phenyl-2-thioxothiazolidin-4-one]?
Answer: IC50 [1]: 1380 ± 110 nM; DPPH radical scavenging activity [2]: 92.2%; intracellular ROS scavenging activity [3]: significantly and concentration-dependently reduced SIN-1-induced increases in the intracellular ROS activity and it did so to a greater extent than trolox

Question: Which IC50 [1] does the source give for `COc1ccc(/C=C2\SC(=S)N(c3ccccc3)C2=O)cc1O` [Analog 6, (Z)-5-(3-Hydroxy-4-methoxybenzylidene)-3-phenyl-2-thioxothiazolidin-4-one] here?
Answer: 1880 ± 700 nM

Question: What about the “enhancement of inhibitory activity relative to analog 4” value ([1]; ratio of IC50 values versus analog 4) of the same compound?
Answer: 43 fold

Question: What about the “DPPH radical scavenging activity” value [2] of the same compound?
Answer: 27.2%

Question: What about the “intracellular ROS scavenging activity” value [3] of the same compound?
Answer: did not show ROS scavenging activity

Question: For `O=C1/C(=C/c2ccc(O)cc2)SC(=S)N1c1ccccc1` [Analog 1, (Z)-5-(4-Hydroxybenzylidene)-3-phenyl-2-thioxothiazolidin-4-one], which IC50 [1] is on record?
Answer: 1450 ± 40 nM

Question: And the “potency of mushroom tyrosinase inhibition relative to kojic acid” value [1]?
Answer: 12 fold

Question: And the “DPPH radical scavenging activity” value [2]?
Answer: 14.7%

Question: And the “intracellular ROS scavenging activity” value [3]?
Answer: did not show ROS scavenging activity
